According to patent US20140288052A1, “SUBSTITUTED BICYCLIC AZA-HETEROCYCLES AND ANALOGUES AS SIRTUIN MODULATORS” (GlaxoSmithKline, LLC, priority 2011, published 2014):

Legend:
SIRT1 [1] = target: T1, SIRT1 (Homo sapiens, UniProt Q96EB6); test: Trp mass spectrometry assay of SIRT1 deacetylase activation; type: biochemical; details: Trp peptide substrate; for TRP EC1.5 (μM): concentration that results in 150% activation of SIRT1; for TRP % Fold Act: percent maximum fold activation relative to control (100%)
T1 sequence (Q96EB6 1-747): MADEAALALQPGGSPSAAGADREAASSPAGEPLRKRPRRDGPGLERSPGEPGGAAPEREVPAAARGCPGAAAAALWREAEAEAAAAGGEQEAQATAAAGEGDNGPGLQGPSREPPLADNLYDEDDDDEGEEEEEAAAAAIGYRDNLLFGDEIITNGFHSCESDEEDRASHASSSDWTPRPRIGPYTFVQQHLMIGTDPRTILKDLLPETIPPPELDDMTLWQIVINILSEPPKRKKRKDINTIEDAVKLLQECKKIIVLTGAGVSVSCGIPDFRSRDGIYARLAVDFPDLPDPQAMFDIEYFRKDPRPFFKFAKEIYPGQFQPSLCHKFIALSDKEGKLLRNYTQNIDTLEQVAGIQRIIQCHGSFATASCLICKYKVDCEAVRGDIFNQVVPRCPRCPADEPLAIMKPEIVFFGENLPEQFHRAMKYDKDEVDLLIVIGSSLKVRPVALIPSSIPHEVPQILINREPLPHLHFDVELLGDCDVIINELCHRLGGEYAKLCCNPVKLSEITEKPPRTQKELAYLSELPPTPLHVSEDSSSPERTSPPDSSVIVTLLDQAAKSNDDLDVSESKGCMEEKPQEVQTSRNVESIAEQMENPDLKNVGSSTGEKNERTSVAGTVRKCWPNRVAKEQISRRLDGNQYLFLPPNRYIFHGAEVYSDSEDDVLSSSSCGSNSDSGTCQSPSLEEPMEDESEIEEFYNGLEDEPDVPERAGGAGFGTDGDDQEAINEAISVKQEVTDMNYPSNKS
Description: (§1) Mass spectrometry based assays were used to identify modulators of SIRT1 activity. The TAMRA based assay utilized a peptide having 20 amino acid residues as follows: Ac-EE-K(biotin)-GQSTSSHSK(Ac)NleSTEG-K(5TMR)-EE-NH2 (SEQ ID NO: 1), wherein K(Ac) is an acetylated lysine residue and Nle is a norleucine. The peptide was labeled with the fluorophore 5TMR (excitation 540 nm/emission 580 nm) at the C-terminus. The sequence of the peptide substrate was based on p53 with several modifications. In addition, the methionine residue naturally present in the sequence was replaced with the norleucine because the methionine may be susceptible to oxidation during synthesis and purification. The Trp based assay utilized a peptide having an amino acid residues as follows: Ac-R-H-K-K(Ac)-W-NH2 (SEQ ID NO: 2).
The Trp mass spectrometry assay was conducted as follows. 0.5 μM peptide substrate and 120 μM βNAD^+ were incubated with 10 nM SIRT1 for 25 minutes at 25° C. in a reaction buffer (50 mM HEPES pH 7.5, […], 1 mM DTT, 0.05% BSA). The SIRT1 protein was obtained by cloning the SirT1 gene into a T7-promoter containing vector, which was then expressed in BL21(DE3) bacterial cells and purified as described in further detail below. Test compound was added at varying concentrations to this reaction mixture and the resulting reactions were monitored. After the 25 minute incubation with SIRT1, 10 μL of 10% formic acid was added to stop the reaction. The resulting reactions were sealed and frozen for later mass spec analysis. The relative SIRT1 activity was then determined by measuring the amount of O-acetyl-ADP-ribose (OAADPR) formed (or, alternatively, the amount of deacetylated Trp peptide generated) by the NAD-dependent sirtuin deacetylation reaction in the presence of varying concentrations of the test compound versus control reactions lacking the test compound. The degree to which the test agent activated deacetylation by SIRT1 was expressed as EC1.5 (i.e., the concentration of compound required to increase SIRT1 activity by 50% over the control lacking test compound), and Percent Maximum Activation (i.e., the maximum activity relative to control (100%) obtained for the test compound).
(§2) A control for inhibition of sirtuin activity was conducted by adding 1 μL of 500 mM nicotinamide as a negative control at the start of the reaction (e.g., permits determination of maximum sirtuin inhibition). A control for activation of sirtuin activity was conducted using 10 nM of sirtuin protein, with 1 μL of DMSO in place of compound, to determine the amount of deacetylation of the substrate at a given time point within the linear range of the assay. This time point was the same as that used for test compounds and, within the linear range, the endpoint represents a change in velocity. For the above assay, SIRT1 protein was expressed and purified as follows. The SirT1 gene was cloned into a T7-promoter containing vector and transformed into BL21(DE3). The protein was expressed by induction with 1 mM IPTG as an N-terminal His-tag fusion protein at 18° C. overnight and harvested at 30,000×g. Cells were lysed with lysozyme in lysis buffer (50 mM Tris-HCl, 2 mM Tris[2-carboxyethyl] phosphine (TCEP), 10 μM ZnCl2, 200 mM NaCl) and further treated with sonication for 10 min for complete lysis. The protein was purified over a Ni-NTA column (Amersham) and fractions containing pure protein were pooled, concentrated and run over a sizing column (Sephadex S200 26/60 global). The peak containing soluble protein was collected and run on an Ion-exchange column (MonoQ). Gradient elution (200 mM-500 mM NaCl) yielded pure protein. This protein was concentrated and dialyzed against dialysis buffer (20 mM Tris-HCl, 2 mM TCEP) overnight. The protein was aliquoted and frozen at −80° C. until further use.
Sirtuin-modulating compounds of Formula (I) that activated SIRT1 were identified using the assay described above and are shown below in Table 1. […]

SIRT1 [2] = target: T1, SIRT1; test: TAMRA based mass spectrometry assay of SIRT1 deacetylase activation; type: biochemical; details: TAMRA peptide substrate; for TAMRA EC1.5 (μM): concentration that results in 150% activation of SIRT1; for TAMRA % Fold Act: percent maximum fold activation relative to control (100%)
Description: as §1
The TAMRA based mass spectrometry assay was conducted as follows: 0.5 μM peptide substrate and 120 μM βNAD^+ was incubated with 10 nM SIRT1 for 25 minutes at 25° C. in a reaction buffer (50 mM Tris-acetate pH 8, 137 mM NaCl, 2.7 mM KCl, 1 mM MgCl2, 5 mM DTT, 0.05% BSA). The SIRT1 protein was obtained by cloning the SirT1 gene into a T7-promoter containing vector, which was then transformed and expressed in BL21(DE3) bacterial cells. Test compound was added at varying concentrations to this reaction mixture and the resulting reactions were monitored. After the 25 minute incubation with SIRT1, 10 μL of 10% formic acid was added to stop the reaction. The resulting reactions were sealed and frozen for later mass spec analysis. Determination of the amount of deacetylated substrate peptide formed (or, alternatively, the amount of O-acetyl-ADP-ribose (OAADPR) generated) by the sirtuin-mediated NAD-dependent deacetylation reaction allowed for the precise measurement of relative SIRT1 activity in the presence of varying concentrations of the test compound versus control reactions lacking the test compound.
as §2
Sirtuin-modulating compounds of Formula (I) that activated SIRT1 were identified using the assay described above and are shown below in Table 1. The EC1.5 values represent the concentration of test compounds that result in 150% activation of SIRT1. The EC1.5 values for the activating compounds of Formula (I) are represented by A (EC1.5<1 μM), B (EC1.5 1−25 μM), C (EC1.5>25 μM). […]

| Structure (SMILES) | TRP EC1.5 (μM) (SIRT1 [1]) | TRP % Fold Act (SIRT1 [1]) | TAMRA EC1.5 (μM) (SIRT1 [2]) | TAMRA % Fold Act (SIRT1 [2]) |
| --- | --- | --- | --- | --- |
| O=C(Nc1ccnc2cc(-c3cccc(C(F)(F)F)c3)nn12)c1ccccn1 [Compound 70] | C (EC1.5>25 μM) | B (Fold Activation<350%) | C (EC1.5>25 μM) | B (Fold Activation<350%) |
| O=C(Nc1ccnc2cc(-c3ccccc3C(F)(F)F)nn12)c1ncccc1F [Compound 113] | B (EC1.5 1−25 μM) | B (Fold Activation<350%) | A (EC1.5<1 μM) | A (Fold activation≧350%) |
| O=C(Nc1cccc(CN2CCOCC2)n1)c1ccnc2cc(-c3ccccc3C(F)(F)F)nn12 [Compound 83] | B (EC1.5 1−25 μM) | B (Fold Activation<350%) | A (EC1.5<1 μM) | A (Fold activation≧350%) |
| O=C(Nc1ccnc2cc(-c3ccccc3C(F)(F)F)nn12)c1ccn[nH]1 [Compound 110] | B (EC1.5 1−25 μM) | B (Fold Activation<350%) | B (EC1.5 1−25 μM) | A (Fold activation≧350%) |
| Cc1cc(C)nc(C(=O)Nc2ccnc3cc(-c4ccccc4C(F)(F)F)nn23)c1 [Compound 106] | C (EC1.5>25 μM) | B (Fold Activation<350%) | A (EC1.5<1 μM) | A (Fold activation≧350%) |
| O=C(Nc1ccncn1)c1ccnc2cc(-c3ccccc3C(F)(F)F)nn12 [Compound 78] | B (EC1.5 1−25 μM) | B (Fold Activation<350%) | A (EC1.5<1 μM) | A (Fold activation≧350%) |
| Cc1cnc(NC(=O)c2cc(N3CCOCC3)nn3cc(-c4cccc(C(F)(F)F)c4)nc23)s1 [Compound 48] | C (EC1.5>25 μM) | B (Fold Activation<350%) | C (EC1.5>25 μM) | B (Fold Activation<350%) |
| O=C(Nc1ccnc2cc(-c3ccccc3C(F)(F)F)nn12)c1cnc(O)cn1 [Compound 117] | C (EC1.5>25 μM) | B (Fold Activation<350%) | A (EC1.5<1 μM) | A (Fold activation≧350%) |
| Cc1cnc(NC(=O)c2ccnn3cc(-c4ccccc4F)nc23)s1 [Compound 4] | C (EC1.5>25 μM) | B (Fold Activation<350%) | C (EC1.5>25 μM) | B (Fold Activation<350%) |
| COc1cccc(C(=O)Nc2ccnc3cc(-c4ccccc4C(F)(F)F)nn23)n1 [Compound 111] | C (EC1.5>25 μM) | B (Fold Activation<350%) | A (EC1.5<1 μM) | A (Fold activation≧350%) |
| O=C(Nc1ccccn1)c1cc(N2CCOCC2)nn2cc(-c3ccccc3C(F)(F)F)nc12 [Compound 44] | C (EC1.5>25 μM) | B (Fold Activation<350%) | B (EC1.5 1−25 μM) | B (Fold Activation<350%) |
| O=C(Nc1nccs1)c1cc(N2CCOCC2)nn2cc(-c3ccccc3F)nc12 [Compound 37] | C (EC1.5>25 μM) | B (Fold Activation<350%) | C (EC1.5>25 μM) | B (Fold Activation<350%) |
| Cc1cnc(NC(=O)c2ccnn3cc(-c4ccccc4C(F)(F)F)nc23)s1 [Compound 14] | C (EC1.5>25 μM) | B (Fold Activation<350%) | A (EC1.5<1 μM) | B (Fold Activation<350%) |
| O=C(Nc1ccncc1)c1cc(N2CCOCC2)nn2cc(-c3ccccc3F)nc12 [Compound 41] | C (EC1.5>25 μM) | B (Fold Activation<350%) | C (EC1.5>25 μM) | B (Fold Activation<350%) |
| O=C(Nc1nccs1)c1ccnc2cc(-c3cccc(C(F)(F)F)c3)nn12 [Compound 87] | C (EC1.5>25 μM) | B (Fold Activation<350%) | C (EC1.5>25 μM) | B (Fold Activation<350%) |
